Laboratory results taken from patent US9133158B2, “Bicyclic dihydroisoquinoline-1-one derivatives” (Hoffmann-La Roche Inc., priority 2011, dated 2015).

Legend:
human CYP11B2 = target: T1, human CYP11B2 (Homo sapiens, UniProt P19099); test: G-402 cellular enzyme assay, human CYP11B2 (aldosterone release, HTRF); format: cell-based; conditions: G-402 cells, 1 μM Deoxycorticosterone
T1 construct: expressed in transfected cells
T1 sequence (P19099 25-503): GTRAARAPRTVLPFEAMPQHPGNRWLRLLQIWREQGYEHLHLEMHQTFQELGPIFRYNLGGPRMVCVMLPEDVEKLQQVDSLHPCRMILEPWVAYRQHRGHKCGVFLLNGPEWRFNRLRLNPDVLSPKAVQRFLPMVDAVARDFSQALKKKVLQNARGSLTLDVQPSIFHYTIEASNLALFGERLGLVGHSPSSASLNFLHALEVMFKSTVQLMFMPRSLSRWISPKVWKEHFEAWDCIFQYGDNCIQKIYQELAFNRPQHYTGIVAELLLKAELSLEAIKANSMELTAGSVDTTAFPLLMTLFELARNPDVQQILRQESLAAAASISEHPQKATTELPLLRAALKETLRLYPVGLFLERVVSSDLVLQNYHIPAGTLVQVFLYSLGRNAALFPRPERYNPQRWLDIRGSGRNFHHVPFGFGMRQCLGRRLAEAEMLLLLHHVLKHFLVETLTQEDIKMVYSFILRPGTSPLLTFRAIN
Outline: (§1)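 Steroid output from supernatants, quantified by HTRF as cortisol for CYP11B1 or aldosterone for CYP11B2, gave EC50 values by least-squares 4-parameter MMF fitting against inhibitor concentration. Stably transfected G-402 cells carrying the human enzyme received 1 μM deoxycortisol or 1 μM deoxycorticosterone respectively, 16 h, DMEM/F12 with 2.5% charcoal-stripped FCS.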

human CYP11B1 = target: T2, human CYP11B1 (Homo sapiens, UniProt P15538); test: G-402 cellular enzyme assay, human CYP11B1 (cortisol release, HTRF); format: cell-based; conditions: G-402 cells, 1 μM Deoxycortisol
T2 construct: expressed in transfected cells
T2 sequence (P15538 25-503): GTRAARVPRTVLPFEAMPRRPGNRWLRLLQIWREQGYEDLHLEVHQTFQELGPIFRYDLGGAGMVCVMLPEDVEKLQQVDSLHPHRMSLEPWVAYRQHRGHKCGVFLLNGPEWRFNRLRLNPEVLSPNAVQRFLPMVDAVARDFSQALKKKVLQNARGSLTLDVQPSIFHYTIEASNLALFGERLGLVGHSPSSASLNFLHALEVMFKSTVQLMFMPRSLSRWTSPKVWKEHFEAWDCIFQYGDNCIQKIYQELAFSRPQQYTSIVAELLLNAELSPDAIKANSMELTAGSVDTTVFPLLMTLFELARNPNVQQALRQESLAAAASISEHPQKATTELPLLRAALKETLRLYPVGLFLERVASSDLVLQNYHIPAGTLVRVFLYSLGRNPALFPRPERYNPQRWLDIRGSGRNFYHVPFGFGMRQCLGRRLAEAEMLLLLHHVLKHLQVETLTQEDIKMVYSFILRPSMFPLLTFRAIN
Outline: as §1

| Compound | EC50 (human CYP11B2) [nM] | EC50 (human CYP11B1) [nM] |
| --- | --- | --- |
| CC(=O)N[C@H]1CCCc2c1cncc2N1C(=O)c2ccc(Cl)cc2[C@@H]1C (single isomer, unassigned) [Example 365, N-[(S or R)-4-((S or R)-5-Chloro-3-methyl-1-oxo-1,3-dihydro-isoindol-2-yl)-5,6,7,8-tetrahydro-isoquinolin-8-yl]-acetamide] | 337 | 15900 |
| O=C1c2ccc(Cl)cc2CCN1c1cncc(CN2CCN(CCO)CC2)c1 [Example 165, 6-Chloro-2-{5-[4-(2-hydroxy-ethyl)-piperazin-1-ylmethyl]-pyridin-3-yl}-3,4-dihydro-2H-isoquinolin-1-one] | 3.5 | 60.4 |
| O=C1c2ccc(Cl)cc2CCN1c1cncc(CNC2COC2)c1 [Example 164, 6-Chloro-2-[5-(oxetan-3-ylaminomethyl)-pyridin-3-yl]-3,4-dihydro-2H-isoquinolin-1-one] | 141 | 862 |
| CC(Nc1ncco1)c1cncc(N2CCc3cc(Cl)ccc3C2=O)c1 (stereo not drawn) [Example 272, 6-Chloro-2-{5-[1-(oxazol-2-ylamino)-ethyl]-pyridin-3-yl}-3,4-dihydro-2H-isoquinolin-1-one] | 60.4 | 210 |
| COc1cncc(N2CCc3nc(O)ccc3C2=O)c1 [Example 139, 2-Hydroxy-6-(5-methoxy-pyridin-3-yl)-7,8-dihydro-6H-[1,6]naphthyridin-5-one] | 953 | 11200 |
| O=C1c2ccc(Cl)cc2CCN1c1cncc(Cn2cnnc2)c1 [Example 179, 6-Chloro-2-(5-[1,2,4]triazol-4-ylmethyl-pyridin-3-yl)-3,4-dihydro-2H-isoquinolin-1-one] | 620 | 7720 |
| CCS(=O)(=O)N1CCCC(c2cncc(N3C(=O)c4ccc(Cl)cc4C3(C)C)n2)C1 (stereo not drawn) [Example 464, 5-Chloro-2-[6-(1-ethanesulfonyl-piperidin-3-yl)-pyrazin-2-yl]-3,3-dimethyl-2,3-dihydro-isoindol-1-one] | 2.8 | 1650 |
| Nc1cccc2c(N3CCc4cc(Cl)ccc4C3=O)cncc12 [Example 288, 8′-Amino-6-chloro-3,4-dihydro-[2,4′]biisoquinolinyl-1-one] | 539 | 8870 |
| CCc1nccn1Cc1cncc(N2CCc3cc(Cl)ccc3C2=O)c1 [Example 191, 6-Chloro-2-[5-(2-ethyl-imidazol-1-ylmethyl)-pyridin-3-yl]-3,4-dihydro-2H-isoquinolin-1-one] | 394 | 8550 |
| COC(=O)[C@@H]1CCCN1Cc1cncc(N2CCc3cc(Cl)ccc3C2=O)c1 [Example 84, (S)-1-[5-(6-Chloro-1-oxo-3,4-dihydro-1H-isoquinolin-2-yl)-pyridin-3-ylmethyl]-pyrrolidine-2-carboxylic acid methyl ester] | 225 | 4830 |
| CCC(=O)N1CCCC(c2cncc(N3C(=O)c4ccc(Cl)cc4C3(C)C)n2)C1 (stereo not drawn) [Example 463, 5-Chloro-3,3-dimethyl-2-[6-(1-propionyl-piperidin-3-yl)-pyrazin-2-yl]-2,3-dihydro-isoindol-1-one] | 47.1 | 932 |
| Cn1ncc(C#N)c1-c1cncc(N2CCc3cc(Cl)ccc3C2=O)c1 [Example 246, 5-[5-(6-Chloro-1-oxo-3,4-dihydro-1H-isoquinolin-2-yl)-pyridin-3-yl]-1-methyl-1H-pyrazole-4-carbonitrile] | 102 | 546 |
| CCC1c2ccc(Cl)cc2C(=O)N1c1cncc(CNS(C)(=O)=O)c1 (single isomer, unassigned) [Example 407, N-[5-((R or S)-5-Chloro-1-ethyl-3-oxo-1,3-dihydro-isoindol-2-yl)-pyridin-3-ylmethyl]-methane-sulfonamide] | 987 | 20700 |
| CC(=O)NC1CCCc2c1cncc2N1CCc2cc(Cl)ccc2C1=O (single isomer, unassigned) [Example 321, N-((S or R)-6-Chloro-1-oxo-3,4,5′,6′,7′,8′-hexahydro-1H-[2,4′]biisoquinolinyl-8′-yl)-acetamide] | 55.6 | 3990 |
| COCc1ccncc1N1CCc2cc(Cl)ccc2C1=O [Example 69, 6-Chloro-2-(4-methoxymethyl-pyridin-3-yl)-3,4-dihydro-2H-isoquinolin-1-one] | 154 | 7540 |
| O=C1c2ccc(Cl)cc2CCN1c1cncc(CNc2cccc(Cl)c2)c1 [Example 261, 6-Chloro-2-{5-[(3-chloro-phenylamino)-methyl]-pyridin-3-yl}-3,4-dihydro-2H-isoquinolin-1-one] | 26.7 | 105 |
| CC1(C)c2cc(Cl)ccc2C(=O)N1c1cncc(F)c1 [Example 129, 5-Chloro-2-(5-fluoro-pyridin-3-yl)-3,3-dimethyl-2,3-dihydro-isoindol-1-one] | 63.6 | 3160 |
| O=C(NC1CC1)c1cncc(N2CCc3cc(Cl)ccc3C2=O)c1 [Example 44, 5-(6-Chloro-1-oxo-3,4-dihydro-1H-isoquinolin-2-yl)-N-cyclopropyl-nicotinamide] | 5930 | 16900 |
| O=C1c2ccc(Cl)cc2CCN1c1cncc(Cn2ccnc2CO)c1 [Example 163, 6-Chloro-2-[5-(2-hydroxymethyl-imidazol-1-ylmethyl)-pyridin-3-yl]-3,4-dihydro-2H-isoquinolin-1-one] | 215 | 3360 |
| CCS(=O)(=O)NCc1cncc(N2C(=O)c3ccc(F)cc3C2(C)C)c1 [Example 388, Ethanesulfonic acid [5-(6-fluoro-1,1-dimethyl-3-oxo-1,3-dihydro-isoindol-2-yl)-pyridin-3-ylmethyl]-amide] | 272 | 3970 |
| CCS(=O)(=O)N1CCN(c2cncc(N3C(=O)c4ccc(Cl)cc4C3(C)C)c2)CC1 [Example 458, 5-Chloro-2-[5-(4-ethanesulfonyl-piperazin-1-yl)-pyridin-3-yl]-3,3-dimethyl-2,3-dihydroisoindol-1-one] | 1.7 | 351 |
| CCS(=O)(=O)N(C)Cc1cncc(N2C(=O)c3ccc(F)cc3C23CC3)c1 [Example 394, N-{[5-(6′-Fluoro-3′-oxospiro [cyclopropane-1,1′-isoindol]-2′(3′H)-yl)pyridin-3-yl]methyl}-N-methylethane-sulfonamide] | 45.6 | 2920 |
| Cn1nccc1CNc1cncc(N2CCc3cc(Cl)ccc3C2=O)c1 [Example 226, 6-Chloro-2-{5-[(2-methyl-2H-pyrazol-3-ylmethyl)-amino]-pyridin-3-yl}-3,4-dihydro-2H-isoquinolin-1-one] | 53.4 | 3400 |
| O=C1c2ccc(Cl)cc2CCN1c1cncc(N2CCC[C@H]2CO)c1 [Example 135, 6-Chloro-2-[5-((S)-2-hydroxymethyl-pyrrolidin-1-yl)-pyridin-3-yl]-3,4-dihydro-2H-isoquinolin-1-one] | 93.1 | 523 |
| O=C1c2ccc(Cl)cc2C2(CC2)N1c1cnccc1Cl [Example 305, 6′-Chloro-2′-(4-chloropyridin-3-yl)spiro[cyclopropane-1,1′-isoindol]-3′(2′H)-one] | 5.4 | 860 |
| O=C1c2ccc(Cl)cc2CCN1c1cncc(CN2CCC[C@H]2CO)c1 [Example 149, 6-Chloro-2-[5-((S)-2-hydroxymethyl-pyrrolidin-1-ylmethyl)-pyridin-3-yl]-3,4-dihydro-2H-isuquinolin-1-one] | 126 | 1920 |
| O=C1c2ccc(Cl)cc2CCN1c1cncc(Cn2nccn2)c1 [Example 174, 6-Chloro-2-(5-[1,2,3]triazol-2-ylmethyl-pyridin-3-yl)-3,4-dihydro-2H-isoquinolin-1-one] | 25.8 | 211 |
| Cn1nccc1Cc1cncc(N2CCc3cc(Cl)ccc3C2=O)c1 [Example 208, 6-Chloro-2-[5-(2-methyl-2H-pyrazol-3-ylmethyl)-pyridin-3-yl]-3,4-dihydro-2H-isoquinolin-1-one] | 2.1 | 18.9 |
| CCC(=O)N1CC(Oc2cncc(N3C(=O)c4ccc(Cl)cc4C3(C)C)c2)C1 [Example 451, 5-Chloro-3,3-dimethyl-2-[5-(1-propionyl-azetidin-3-yloxy)-pyridin-3-yl]-2,3-dihydro-isoindol-1-one] | 38.9 | 5330 |
| CC1c2cc(Cl)ccc2C(=O)N1c1cccnc1 (stereo not drawn) [Example 118, 5-Chloro-3-methyl-2-pyridin-3-yl-2,3-dihydro-isoindol-1-one] | 123 | 1250 |
